Tests used:
[1] = test system: store-operated Ca^2+ entry (SOCE); assay: Store-operated Ca2+ entry (SOCE) in isolated human eccrine sweat glands, thapsigargin-induced, Fura-2 340:380 ratio; format: cell-based; conditions: for IC50: half-maximal concentration from dose-response curve, isolated eccrine glands, 1 μM thapsigargin; for inhibition at 10 µM: reduction in 340:380 ratio at maximal inhibitor concentration 10^−5M, as % of control response, read-out: Potency (% inhibition at 10^−5M)
Method: Isolation of Human Eccrine Sweat Glands
Viable human eccrine sweat glands were isolated from samples of human skin (obtained under ethical consent).
Measurement of Intracellular Ca^2+ Concentration
Intracellular [Ca^2+]i was measured in isolated eccrine glands by plating them onto Matrigel coated glass coverslips and loading them with the calcium-sensitive, fluorescent dye Fura-2 by incubation (30-45 minutes, 37° C.) with the membrane-permeant, acetoxymethyl ester form of the dye (Fura-2AM). These coverslips (with dye-loaded glands) were then mounted in a small chamber attached to the stage of an inverted microscope, and the glands superfused (ca. 5 ml minute^−1, 37° C.) with physiological salt solution (PSS; composition (mM): NaCl 130, KCl 5, MgCl2 1, CaCl2 1, HEPES 20, D-Glucose 10, pH 7.4 with NaOH). Changes in [Ca^2+]i were detected using 340/380 nm excitation and 510 nm emission wavelengths, and data expressed as the 340:380 ratio.
Measurement of Store-Operated Ca^2+ Entry (SOCE)
To measure store-operated calcium entry (SOCE), independent of external membrane receptor activation, the following assay protocol was used. First, isolated glands were exposed to 1 μM thapsigargin in Ca^2+-free PSS for 3 minutes. As thapsigargin inhibits the Ca^2+-ATPase uptake pathway in intracellular Ca^2+ stores, this enables Ca^2+ to leak out of the store and subsequently trigger the activation of SOCE. In Ca^2+-free PSS, this process is represented by a very small rise in [Ca^2+]i. Glands were then exposed to 1 μM thapsigargin in Ca^2+-containing PSS for 2 minutes, thereby inducing a rapid increase in [Ca^2+]i via Ca^2+ entry into the cells via the open SOCE pathway. To complete the protocol, thapsigargin is finally removed by washing the glands with Ca^2+ -containing PSS, and allowing the resting [Ca^2+]i level to re-establish itself, and the intracellular Ca^2+ stores to refill. The effectiveness of selected SOCE channel inhibitors were assessed by repeating the above procedure in the presence of the inhibitor (at a chosen concentration) from the time at which thapsigargin was added to release the intracellular Ca^2+ stores, until the cells were finally washed following the Ca^2+ peak initiated by Ca^2+ entry. Dose-response curves were constructed for each inhibitor and the half-maximal concentration (IC50) determined. The potency of each inhibitor was also assessed by expressing the reduction in the 340:380 ratio observed at the maximum concentration (10^−5M) as a % of the control response (i.e. in the absence of inhibitor; see Table 1).

interleukin (IL)-6 = assay: THP-1 in vitro anti-inflammation assay: IL-6 ELISA in supernatant of PMA-differentiated, LPS-treated THP1-XBlue cells; format: cell-based; conditions: 24 hours, LPS alone 24176
Method: The following procedure was used to test the anti-inflammation efficacy of the actives.
THP1-XBlue™ (Cat No: thpx-sp, InvivoGen) cells were cultured as a suspension in RPMI 1640 medium supplemented with 10% FBS, penicillin (10 U/mL)—streptomycin (10 μg/ML). Cells were differentiated in 24-well plates at the density of 5×10^5 cells/well with 100 nM PMA for 72 hours. Cells were then co-treated with pure E. coli lipopolysaccharides (LPS) and with active. After 24 hours, the supernatants were collected and measured for interleukin (IL)-6 as pro-inflammatory bio-marker using enzyme-linked immunosorbent assay (ELISA).

[2] = 20 μM active co-treated with E. coli LPS

Row | SMILES | IC50 [1] [nM] | inhibition at 10 µM [1] [%] | Concentration of IL-6 (interleukin (IL)-6; [2]) [pg/mL] | Concentration of IL-6 (interleukin (IL)-6; 10 μM active co-treated with E. coli LPS) [pg/mL]
1 | COc1cc(CCC(O)CC(O)CCc2ccc(O)c(OC)c2)ccc1O (stereo not drawn) [Formula 4, 1,7-bis(4-hydroxy-3-methoxyphenyl) heptane-3,5-diol] | 91.2 | 75.4 | 18218 | –
2 | COc1ccc(/C=C/C(=O)C(C)(C)C(=O)/C=C/c2ccc(OC)c(OC)c2)cc1OC [Formula 2] | 24 | 99 | – | –
3 | COc1ccc(CCC(O)C(C)(C)C(O)CCc2ccc(OC)c(OC)c2)cc1OC (stereo not drawn) [Formula 5, 1,7-bis (3,4-dimethoxyphenyl)-4,4-dimethylheptane-3,5-diol] | 138 | 76 | 9142 | 14880

— US20190358138A1, “A PERSONAL CARE COMPOSITION” (Conopco, Inc., d/b/a UNILEVER, priority 2017, published 2019)
